Patent US10662194B2, “Substituted 6-anilino-9-heterocyclylpurine derivatives for inhibition of plant stress” (UNIVERZITA PALACKEHO V OLOMOUCI, priority 2014, dated 2020)
Marks after values point to notes of the source that are not given here.

Columns and labels:
recombinant AtCKX2 = molecular target: T1, recombinant AtCKX2 (Arabidopsis thaliana, UniProt Q9FUJ3); assay: Inhibition of cytokinin oxidase/dehydrogenase activity (PMS/MTT microtitre assay); format: biochemical
T1 construct: made in house; host or cells: S. cerevisiae strain 23344c ura-
T1 sequence (Q9FUJ3 23-501): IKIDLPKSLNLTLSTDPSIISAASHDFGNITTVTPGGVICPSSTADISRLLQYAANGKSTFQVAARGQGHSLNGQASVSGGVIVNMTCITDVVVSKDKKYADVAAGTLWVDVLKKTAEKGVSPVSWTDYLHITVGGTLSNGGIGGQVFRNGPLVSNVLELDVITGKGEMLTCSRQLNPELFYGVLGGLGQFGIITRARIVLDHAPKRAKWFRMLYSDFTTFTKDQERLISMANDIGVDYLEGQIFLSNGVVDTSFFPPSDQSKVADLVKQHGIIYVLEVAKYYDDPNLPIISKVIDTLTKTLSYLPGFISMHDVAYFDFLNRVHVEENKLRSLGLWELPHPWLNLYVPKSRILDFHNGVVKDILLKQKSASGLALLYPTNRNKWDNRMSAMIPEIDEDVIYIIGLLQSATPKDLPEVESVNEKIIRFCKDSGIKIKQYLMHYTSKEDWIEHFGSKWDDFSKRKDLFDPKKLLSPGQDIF
Protocol: IC50 measurements were done using the assay in microtitre plate. Each well contained 100 μL of PMS/MTT [phenazine methosulfate/3-(4,5-dimethylthiazol-2-yl)-2,5-diphenyltetrazolium bromide] reaction mixture (final concentrations: 0.1 M KH2PO4, pH 7.4, 1 mM MTT, 0.2 mM PMS) containing the tested compound (3×10^−7 M-3×10^−4 M) and 30 μM N^6-isopentenyladenine (iP) as a substrate. 100 μL of cell-free growth medium of S. cerevisiae strain 23344c ura^− harboring the plasmid pYES2-AtCKX2 was directly used as a source of AtCKX2. Plates were incubated in the dark for 30 min at 37° C. and the enzymatic reaction was stopped by 25 μL of 35% acetic acid. The absorbance at 578 nm was measured using spectrophotometer Tecan. Absorbance of the sample without iP was subtracted.
The IC50 value, the compound concentration that inhibits the enzyme activity to 50%, was calculated from the obtained dose response curves. The values shown in Table 7 are means of three replicates and the entire test was repeated at least twice. […] Compound 12 is an effective inhibitor of AtCKX2 activity, app. 3-times stronger that thidiazuron and only app. 3-times weaker than the structurally related compound INCYDE (2-chloro-6-(3-methoxyanilino)purine).

human U2OS cells = assay: Induction of DNA breakage, γ-H2AX immunofluorescence; format: cell-based; settings: 100 μM, 24 h, FIG. 13
Excerpt: Maintenance of genome integrity is essential for homeostasis and survival as impaired DNA damage response may predispose to grave pathologies such as neurodegenerative and immunodeficiency syndromes, cancer and premature aging (Mistrik et al., 2009). The potential effect of compound 12 on stimulation of DNA breakage was thus further estimated through analysis of phosphorylated histone H2AX (gamma-H2AX) quantified by optimized automated single-cell image analysis (Mistrik et al., 2009). The compound 12 was tested in concentration of 100 μM, the highest concentration accessible due to the compound solubility. Induction of DNA breakage was tested using human U2OS cells. The U2OS cells were cultivated at standard cultivation condition (37° C., 5% CO2). As a positive control, cells were irradiated by roentgen radiation (Baltobloc) (0.5 Gy-2 Gy), one hour later fixed and stained for γ-H2AX, a well established marker of the DNA damage. Parallel samples were treated by compound 12 for 24 hours, fixed and also stained for γ-H2AX. Microscopy analysis followed by computer based signal quantification was performed as described previously (Mistrik et al., 2009).

[1] = system: maize hybrides Amadeo and Zidane; assay: Seed coating, shoot biomass of silage maize (field experiment); format: in vivo
Protocol: Based on the results discussed in previous Example 25, field plot experiments were performed on two different locations (Kroměříž Czech Republic; Olomouc, Czech Republic) in years 2012 and 2013 to evaluate the effect of seed coating with compound 12 on biomass formation of maize. In
the season 2012 the seeds of maize (hybrid Amadeo; KWS, FAO 230) were coated with 10 and 50 μM water solution of compound 12 (8 L of solution per 1000 kg of seeds). The seeds were dried and then sown in the sowing rate 90.000 seeds per hectare in 4 replications per each variant in randomized positions (each replication was 10 square meter plot). The plants were harvested when reached the stage of 33-34% of dry mass. The plants were then analyzed for their moisture and standardized dry mass.
The experiment was repeated in the season 2013 with 50 μM concentration of compound 12 in the same experimental design with maize hybrid Zidane (KWS, FAO 250).

[2] = system: CKX1 overproducing (35S:CKX1) Arabidopsis seedlings; assay: In vitro shoot and root growth of cytokinin deficient Arabidopsis plants; format: in vivo
Excerpt: Constitutive overexpression of CKX in 35S:CKX1 plants leads to enhanced root growth. If CKX inhibitor can restore WT phenotype, it is expected that inhibition of the CKX activity in 35S:AtCKX1 plants should thus have no effect or inhibit their root growth. Such observation was done in case of INCYDE, but not compound 12.

## COc1cccc(Nc2nc(Cl)nc3c2ncn3C2CCCCO2)c1 (stereo not shown) [compound 12, 2-chloro-6-(3-methoxyanilino)-9-(tetrahydropyran-2-yl)purine]
Recombinant AtCKX2
  AtCKX2 inhibition, times stronger than thidiazuron: ~3 times
  AtCKX2 inhibition, times weaker than INCYDE: ~3 times
Recombinant AtCKX2; 30 μM iP substrate, 30 min, 37° C., read-out: IC50
  IC50: 19.5 µM
Human U2OS cells
  DNA damage (γ-H2AX): no effect on DNA damage
[1]; 10 μM, Kroměříž, 2012
  Absolute dry matter yield: 23.06 t/ha
  Absolute green matter yield: 52.19 t/ha
  Height before harvest: 276.6 cm
  Height before harvest (% of control): 101.0 % of control
  Relative dry matter yield (% of control): 110.85 % of control
[1]; 10 μM, Olomouc, 2012
  Absolute dry matter yield: 17.01 t/ha
  Absolute green matter yield: 43.20 t/ha
  Height before harvest: 237.3 cm
  Height before harvest (% of control): 98.3 % of control
  Relative dry matter yield (% of control): 110.94 % of control
[1]; 10 μM, counted from 2 trials
  average silage yield counted from all trials: 110.9%
[1]; 50 μM, Kroměříž, 2012
  Absolute dry matter yield: 22.18 t/ha
  Absolute green matter yield: 49.52 t/ha
  Height before harvest: 273.5 cm
  Height before harvest (% of control): 99.8 % of control
  Relative dry matter yield (% of control): 106.63 % of control
[1]; 50 μM, Kroměříž, 2013
  Absolute dry matter yield: 22.33 t/ha
  Absolute green matter yield: 66.47 t/ha
  Relative dry matter yield (% of control): 107.82* % of control
[1]; 50 μM, Olomouc, 2012
  Absolute dry matter yield: 17.80 t/ha
  Absolute green matter yield: 44.31 t/ha
  Height before harvest: 235.8 cm
  Height before harvest (% of control): 97.7 % of control
  Relative dry matter yield (% of control): 116.06 % of control
[1]; 50 μM, Olomouc, 2013
  Absolute dry matter yield: 19.23 t/ha
  Absolute green matter yield: 68.78 t/ha
  Height before harvest: 246.4 cm
  Height before harvest (% of control): 100.8 % of control
  Relative dry matter yield (% of control): 101.33 % of control
[1]; 50 μM, counted from 3 trials
  average silage yield counted from all trials: 105.3%
[1]; seed treatment, all field plot experiments
  effect on the plant height: without any effect on the plant height
[2]; 0.1 μM in MS medium, FIG. 3, 4
  complementation of wild type shoot phenotype: led to restauration of wild type shoot phenotype
[2]; tested concentration range, FIG. 5
  root biomass of 35S:CKX1 plants: strong dose-dependent positive effect
